Source: patent US7223865B2, “Chromogenic compounds, and use thereof as enzyme substrates” (Biomerieux, priority 2003, dated 2007)

How the values were obtained:
Experiment in all cases: pyroglutamine-aminopeptidase activity on gelled medium, Example 9
Type in all cases: cell-based
Parameters in all cases: key to growth: ++ means good growth; + means moderate growth; +/− means poor growth; NG means no growth
[1] = system: Shigella sonnei (NCTC 9774)
Procedure: (§1) A gelled medium comprising this substrate is prepared as follows: 30 mg of each substrate are dissolved (heating) in 10 ml of sterile distilled water. Ten ml of this solution are then added to 90 ml of Columbia agar kept molten at 50° C.
(§2) Various strains of microorganisms derived from the NCTC collection (National Collection of Type Cultures, Colindale, UK) were seeded onto the media thus obtained according to the multipoint inoculation described in example 8 above.
(§3) The colonies formed were examined visually after incubation for 24 h and 48 h. The color and the growth of these colonies were noted.

[2] = system: Escherichia coli (NCTC 14018)
Procedure: as §1, §2, §3

[3] = system: Escherichia coli 0157 (NCTC 12079)
Procedure: as §1, §2, §3

[4] = system: Burkholderia cepacia (NCTC 10743)
Procedure: as §1, §2, §3

[5] = system: Serratia marcescens (NCTC 10211)
Procedure: as §1, §2, §3

[6] = system: Salmonella poona (NCTC 4840)
Procedure: as §1, §2, §3

[7] = system: Salmonella typhimurium (NCTC 74)
Procedure: as §1, §2, §3

[8] = system: Pseudomonas aeruginosa (NCTC 10662)
Procedure: as §1, §2, §3

[9] = system: Klebsiella pneumonia (NCTC 10896)
Procedure: as §1, §2, §3

[10] = system: Enterobacter cloacae (NCTC 11936)
Procedure: as §1, §2, §3

## C[n+]1c2ccccc2c(-c2ccc(NC(=O)C3CCC(=O)N3)cc2)c2ccccc21.[Cl-] (stereo not shown) [PG-4-AP-10-MA, pyroglutamyl-9-(4-aminophenyl)-10-methyl-acridine]
[1]; 24 h
  color of colonies: Colorless
  growth: ++
[1]; 48 h
  color of colonies: Colorless
  growth: ++
[2]; 24 h
  color of colonies: Colorless
  growth: ++
[2]; 48 h
  color of colonies: Colorless
  growth: ++
[3]; 24 h
  color of colonies: Colorless
  growth: ++
[3]; 48 h
  color of colonies: Colorless
  growth: ++
[4]; 24 h
  color of colonies: Colorless
  growth: ++
[4]; 48 h
  color of colonies: Pale orange
  growth: ++
[5]; 24 h
  color of colonies: Colorless
  growth: ++
[5]; 48 h
  color of colonies: Pale orange
  growth: ++
[6]; 24 h
  color of colonies: Colorless
  growth: ++
[6]; 48 h
  color of colonies: Colorless
  growth: ++
[7]; 24 h
  color of colonies: Colorless
  growth: ++
[7]; 48 h
  color of colonies: Colorless
  growth: ++
[8]; 24 h
  color of colonies: Colorless
  growth: ++
[8]; 48 h
  color of colonies: Orange
  growth: ++
[9]; 24 h
  color of colonies: Colorless
  growth: ++
[9]; 48 h
  color of colonies: Pale orange
  growth: ++
[10]; 24 h
  color of colonies: Colorless
  growth: ++
[10]; 48 h
  color of colonies: Pale orange
  growth: ++
